In ChEMBL document CHEMBL1127119, “Pneumocandin antifungal lipopeptides. The phenolic hydroxyl is required for 1,3--glucan synthesis inhibition” (Bioorg Med Chem Lett, 1993):
In brackets after ≈: the same amount, converted by molar mass. Numbered stars: 1 amine (or outer) side, 2 acyl side, 3 side chain; on linkers, the order of the positions; unused ones are H or OH. Bridge positions count the residues as written; N and C are the ends. Square brackets hold non-standard residues; d marks the D form. Peptide text beside a SMILES is read from it. * marks the point of attachment. Orn(4R-OH,5R-OH) = O=C([C@H](C[C@@H](O)[C@@H](O)N[*:3])N[*:1])[*:2]; X3 = O=C([C@@H](N[*:1])[C@H](O)[C@@H](O)c1ccc(OP(=O)(O)O)cc1)[*:2]; hTyr(3S-OH,4S-OH) = N[C@H](C(=O)O)[C@H](O)[C@@H](O)c1ccc(O)cc1; X4 = O=C([C@@H](N[*:1])[C@H](O)[C@H](O)c1ccc(O)cc1)[*:2]; X2 = O=C([C@@H](N[*:1])[C@H](O)[C@@H](O)c1ccccc1)[*:2]; X6 = O=C(Oc1ccc(O)cc1)[C@@H](O)[C@H](N[*:1])C(=O)[*:2]; hTyr(3R-OH) = N[C@H](C(=O)O)[C@H](O)Cc1ccc(O)cc1; Gln(3R-OH) = NC(=O)C[C@@H](O)[C@H](N)C(=O)O; X5 = O=C([C@@H](N[*:1])[C@H](O)CO)[*:2]; Pro(3S-OH) = O=C(O)[C@H]1NCC[C@@H]1O; Hyp = O=C(O)[C@@H]1C[C@@H](O)CN1; X1 = CCC(C)CC(C)CCCCCCCCC(=O)*

What was measured:
[1] = tested on: Mus musculus; assay: Minimum effective dose required for 99.9% reduction of viable CFUs recoverable from mouse kidneys infected with Candida albicans (MY1208) using in vivo Target Organ Kidney Assay (TOKA); assay type: functional
[2] = tested on: Candida tropicalis; assay: The compound was tested for its antifungal activity against Candida tropicalis (MY1012); assay type: functional
[3] = tested on: Candida albicans; assay: The compound was tested for its antifungal activity against Candida albicans (MY1055); assay type: functional
[4] = tested on: Candida albicans; assay: The compound was tested for inhibition of 1,3-beta-glucan synthesis in a preparation containing membranes from Candida albicans (MY1208); assay type: functional
[5] = tested on: Candida parapsilosis; assay: The compound was tested for its antifungal activity against Candida parapsilosis (MY1010); assay type: functional; conditions: Lodderomyces parapsilosis
[6] = species on record: Mus musculus; assay: Minimum effective dose required for 99.9% reduction of viable CFUs recoverable from mouse kidneys compared with sham-treated controls.; assay type: functional, Kidney

SMILES | MED99.9 [1] [mg/kg] | MFC [2] [µg/mL] | MFC [3] [µg/mL] | IC50 [4] [nM] | MFC [5] [µg/mL] | MED99.9 [6] [mg/kg]
CCC(C)CC(C)CCCCCCCCC(=O)N[C@H]1C[C@@H](O)[C@@H](O)NC(=O)[C@@H]2[C@@H](O)CCN2C(=O)[C@H]([C@H](O)CC(N)=O)NC(=O)[C@H]([C@H](O)[C@@H](O)c2ccccc2)NC(=O)[C@@H]2C[C@@H](O)CN2C(=O)[C@H]([C@@H](C)O)NC1=O (stereo partly drawn) (X1-[Orn(4R-OH,5R-OH)]T[Hyp][X2][Gln(3R-OH)][Pro(3S-OH)]; lactam 1-C) | >6 | 1 (≈ 0.953 µM) | 4 (≈ 3.81 µM) | > 10000 | > 128 | –
CCC(C)CC(C)CCCCCCCCC(=O)N[C@H]1C[C@@H](O)[C@@H](O)NC(=O)[C@@H]2[C@@H](O)CCN2C(=O)[C@H]([C@H](O)CC(N)=O)NC(=O)[C@H]([C@H](O)Cc2ccc(O)cc2)NC(=O)[C@@H]2C[C@@H](O)CN2C(=O)[C@H]([C@@H](C)O)NC1=O (stereo partly drawn) (X1-[Orn(4R-OH,5R-OH)]T[Hyp][hTyr(3R-OH)][Gln(3R-OH)][Pro(3S-OH)]; lactam 1-C) | – | < 0.06 | 0.25 (≈ 0.238 µM) | 40 | 4 (≈ 3.81 µM) | 3
CCC(C)CC(C)CCCCCCCCC(=O)N[C@H]1C[C@@H](O)[C@@H](O)NC(=O)[C@@H]2[C@@H](O)CCN2C(=O)[C@H]([C@H](O)CC(N)=O)NC(=O)[C@H]([C@H](O)[C@@H](O)c2ccc(OP(=O)(O)O)cc2)NC(=O)[C@@H]2C[C@@H](O)CN2C(=O)[C@H]([C@@H](C)O)NC1=O (stereo partly drawn) (X1-[Orn(4R-OH,5R-OH)]T[Hyp][X3][Gln(3R-OH)][Pro(3S-OH)]; lactam 1-C) | 6 | 4 (≈ 3.49 µM) | 2 (≈ 1.75 µM) | > 10000 | 32 (≈ 27.9 µM) | –
CCC(C)CC(C)CCCCCCCCC(=O)N[C@H]1C[C@@H](O)[C@@H](O)NC(=O)[C@@H]2[C@@H](O)CCN2C(=O)[C@H]([C@H](O)CC(N)=O)NC(=O)[C@H]([C@H](O)[C@@H](O)c2ccc(O)cc2)NC(=O)[C@@H]2C[C@@H](O)CN2C(=O)[C@H]([C@@H](C)O)NC1=O (stereo partly drawn) (X1-[Orn(4R-OH,5R-OH)]T[Hyp][hTyr(3S-OH,4S-OH)][Gln(3R-OH)][Pro(3S-OH)]; lactam 1-C) | 6 | 0.06 (≈ 0.0563 µM) | 0.25 (≈ 0.235 µM) | 70 | 4 (≈ 3.76 µM) | –
CCC(C)CC(C)CCCCCCCCC(=O)N[C@H]1C[C@@H](O)[C@@H](O)NC(=O)[C@@H]2[C@@H](O)CCN2C(=O)[C@H]([C@H](O)CC(N)=O)NC(=O)[C@H]([C@H](O)CO)NC(=O)[C@@H]2C[C@@H](O)CN2C(=O)[C@H]([C@@H](C)O)NC1=O (stereo partly drawn) (X1-[Orn(4R-OH,5R-OH)]T[Hyp][X5][Gln(3R-OH)][Pro(3S-OH)]; lactam 1-C) | – | 8 (≈ 8.22 µM) | 32 (≈ 32.9 µM) | > 1000 | 8 (≈ 8.22 µM) | –
CCC(C)CC(C)CCCCCCCCC(=O)N[C@H]1C[C@@H](O)[C@@H](O)NC(=O)[C@@H]2[C@@H](O)CCN2C(=O)[C@H]([C@H](O)CC(N)=O)NC(=O)[C@H]([C@H](O)C(=O)Oc2ccc(O)cc2)NC(=O)[C@@H]2C[C@@H](O)CN2C(=O)[C@H]([C@@H](C)O)NC1=O (stereo partly drawn) (X1-[Orn(4R-OH,5R-OH)]T[Hyp][X6][Gln(3R-OH)][Pro(3S-OH)]; lactam 1-C) | – | 8 (≈ 7.41 µM) | 32 (≈ 29.7 µM) | > 1000 | 1 (≈ 0.927 µM) | –
CCC(C)CC(C)CCCCCCCCC(=O)N[C@H]1C[C@@H](O)[C@@H](O)NC(=O)[C@@H]2[C@@H](O)CCN2C(=O)[C@H]([C@H](O)CC(N)=O)NC(=O)[C@H]([C@H](O)[C@H](O)c2ccc(O)cc2)NC(=O)[C@@H]2C[C@@H](O)CN2C(=O)[C@H]([C@@H](C)O)NC1=O (stereo partly drawn) (X1-[Orn(4R-OH,5R-OH)]T[Hyp][X4][Gln(3R-OH)][Pro(3S-OH)]; lactam 1-C) | – | 64 (≈ 60.1 µM) | 8 (≈ 7.51 µM) | 5000 | > 128 | >6
